The values that follow come from patent US20060063782A1, “3-Hetero arylmethoxy ! pyridines and their analogues as p38 map kinase inhibitors” (priority 2002, published 2006).

As a reminder, the IC50 is the midpoint of a concentration-inhibition curve. The low end stands for higher potency, the high end for lower potency.

Chain of p38 MAP kinase (Q16539 whole entry): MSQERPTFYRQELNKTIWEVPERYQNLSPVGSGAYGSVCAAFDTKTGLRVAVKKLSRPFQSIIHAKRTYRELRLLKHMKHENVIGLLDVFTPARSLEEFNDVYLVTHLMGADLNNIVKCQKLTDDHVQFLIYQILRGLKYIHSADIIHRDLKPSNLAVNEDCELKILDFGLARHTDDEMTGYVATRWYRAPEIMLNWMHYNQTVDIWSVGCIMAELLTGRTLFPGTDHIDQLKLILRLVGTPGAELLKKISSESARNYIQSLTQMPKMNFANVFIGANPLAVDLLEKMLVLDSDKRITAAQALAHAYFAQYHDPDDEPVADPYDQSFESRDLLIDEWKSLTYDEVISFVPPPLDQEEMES

For the test, the target named is p38 MAP kinase (Homo sapiens, UniProt Q16539). Put plainly: p38 MAP Kinase Assay (33P incorporation into myelin basic protein, filter plate). Format: biochemical. To be noted: Table 2; MKK6-activated p38, MBP substrate, 50 minutes. Here is the method:
The activated p38 is then diluted 1:6 with assay buffer, and 20 μl mixed with 25 μl of MBP mix (300 μl 10×strength assay buffer, 300 μl of 10 mM DTT & 10 mM sodium orthovanadate, 1.7 ml H2O, 50 μCi γ^33P-ATP, 200 μl of myelin basic protein (MBP) (5 mg/ml)) and added to 96 well plates along with 5 μl of various dilutions of the test compound in DMSO (up to 10%). The reaction is allowed to proceed for 50 minutes before being stopped with an excess of ortho-phosphoric acid (30 μl at 2%).
γ^33P-ATP which remains unincorporated into the myelin basic protein is separated from phosphorylated MBP on a Millipore MAPH filter plate. The wells of the MAPH plate are wetted with 0.5% orthophosphoric acid, and then the results of the reaction are filtered with a Millipore vacuum filtration unit through the wells. Following filtration, the residue is washed twice with 200 μl of 0.5% orthophosphoric acid. Once the filters have dried, 25 μl of Microscint 20 scintillant is added, and then counted on a Packard Topcount for 30 seconds.
With `Cc1noc(-c2ccccc2)c1C(=O)Nc1ccc(F)c(COc2cnccn2)c1` [Compound 122, 3-Methyl-5-phenyl-isoxazole-4-carboxylic acid [4-fluoro-3-(pyrazin-2-yloxymethyl)-phenyl]-amide], the half-inhibitory concentration (IC50) is less than 200 µM. As for `O=C(Nc1ccc(F)c(COc2cnccn2)c1)Nc1nc(-c2ccccc2)cs1` [Compound 123, 1-[4-Fluoro-3-(pyrazin-2-yloxymethyl)-phenyl]-3-(4-phenyl-thiazol-2-yl)-urea], the figure is less than 20 µM. Next, `Cc1nc(-c2cc(C(=O)Nc3ccc(F)c(COc4cnccn4)c3)no2)cs1` [Compound 124, 5-(2-Methyl-thiazol-4-yl)-isoxazole-3-carboxylic acid [4-fluoro-3-(pyrazin-2-yloxymethyl)-phenyl]-amide]: less than 200 µM. Next, `CC(C)(C)c1cc(NC(=O)Nc2ccc(F)c(COc3cnccn3)c2)n(-c2ccc(F)cc2F)n1` [Compound 125, 1-[5-tert-Butyl-2-(2,4-difluoro-phenyl)-2H-pyrazol-3-yl]-3-[4-fluoro-3-(pyrazin-2-yloxymethyl)-phenyl]-urea]: less than 2 µM; `O=C(Nc1ccc(F)c(COc2cnccn2)c1)c1nnc(-c2ccccc2)o1` [Compound 126, 5-Phenyl-[1,3,4]oxadiazole-2-carboxylic acid [4-fluoro-3-(pyrazin-2-yloxymethyl)-phenyl]-amide]: less than 2 µM. `CC(C)(C)c1cc(NC(=O)Nc2ccc(F)c(COc3cnccn3)c2)n(-c2ccc(Cl)cc2)n1` [Compound 127, 1-[5-tert-Butyl-2-(4-chloro-phenyl)-2H-pyrazol-3-yl]-3-[4-fluoro-3-(pyrazin-2-yloxymethyl)-phenyl]-urea]: the IC50 is less than 2 µM. On to `O=C(Nc1ccc(F)c(COc2cnccn2)c1)Nc1cc(-c2ccc(Cl)cc2)nn1-c1ccccc1` [Compound 128, 1-[5-(4-Chloro-phenyl)-2-phenyl-2H-pyrazol-3-yl]-3-[4-fluoro-3-(pyrazin-2-yloxymethyl)-phenyl]-urea], for which the IC50 was less than 2 µM. Take `CC(C)(C)n1nc(-c2ccccc2)cc1NC(=O)Nc1ccc(F)c(COc2cnccn2)c1` [Compound 129]: the half-maximal inhibitory concentration (IC50) is less than 20 µM. Next, `Cc1ccc(-n2nc(C(C)(C)C)cc2NC(=O)Nc2ccc(F)c(COc3cnccn3)c2)cc1` [Compound 130, 1-(5-tert-Butyl-2-p-tolyl-2H-pyrazol-3-yl)-3-[4-fluoro-3-(pyrazin-2-yloxymethyl)-phenyl]-urea]: less than 2 µM; `O=C(Nc1ccc(F)c(COc2cnccn2)c1)c1ccc2ccccc2c1` [Compound 131, Naphthalene-2-carboxylic acid [4-fluoro-3-(pyrazin-2-yloxymethyl)-phenyl]-amide]: less than 20 µM; `O=C(Nc1ccc(F)c(COc2cnccn2)c1)Nc1cc(-c2ccc(Cl)cc2)nn1-c1ccc(F)cc1` [Compound 132, 1-[5-(4-Chloro-phenyl)-2-(4-fluoro-phenyl)-2H-pyrazol-3-yl]-3-[4-fluoro-3-(pyrazin-2-yloxymethyl)-phenyl]-urea]: less than 2 µM. Next, `O=C(Nc1ccc(F)c(COc2cnccn2)c1)c1ccc(-c2ccccc2)cc1` [Compound 133, Biphenyl-4-carboxylic acid [4-fluoro-3-(pyrazin-2-yloxymethyl)-phenyl]-amide]: less than 200 µM; `O=C(Nc1ccc(F)c(COc2cnccn2)c1)Nc1cc(-c2ccccc2)nn1-c1ccccc1` [Compound 134, 1-(2,5-Diphenyl-2H-pyrazol-3-yl)-3-[4-fluoro-3-(pyrazin-2-yloxymethyl)-phenyl]-urea]: less than 2 µM; `CC(C)(C)c1cc(C(=O)Nc2ccc(F)c(COc3cnccn3)c2)n(Cc2ccccc2)n1` [Compound 135, 2-Benzyl-5-tert-butyl-2H-pyrazole-3-carboxylic acid [4-fluoro-3-(pyrazin-2-yloxymethyl)-phenyl]-amide]: less than 20 µM.

For the compound `CC(C)(C)c1cc(C(=O)Nc2ccc(F)c(COc3cnccn3)c2)n(Cc2ccc(F)cc2)n1` [Compound 136, 5-tert-Butyl-2-(4-fluoro-benzyl)-2H-pyrazole-3-carboxylic acid [4-fluoro-3-(pyrazin-2-yloxymethyl)-phenyl]-amide], the half-maximal inhibitory concentration (IC50) was less than 20 µM. As for `CC(CO)(CO)NC(=O)c1cnc(OCc2c(Cl)cccc2Cl)cn1` [Compound 137, 5-(2,6-Dichloro-benzyloxy)-pyrazine-2-carboxylic acid (2-hydroxy-1-hydroxymethyl-1-methyl-ethyl)-amide], the figure is less than 2 µM; as for `NS(=O)(=O)CCNC(=O)c1cnc(OCc2c(Cl)cccc2Cl)cn1` [Compound 138, 5-(2,6-dichloro-benzyloxy)-pyrazine-2-carboxylic acid (2-sulfamoyl-ethyl)-amide], less than 1000 µM. As for `CC(C)(Cc1ccncc1)NC(=O)c1cnc(OCc2c(Cl)cccc2Cl)cn1` [Compound 139, 5-(2,6-Dichloro-benzyloxy)-pyrazine-2-carboxylic acid (1,1-dimethyl-2-pyridin-4-yl-ethyl)-amide], the figure is less than 20 µM; as for `O=C(Nc1ccc(F)c(COc2cnccn2)c1)Nc1nnc(C2CCCO2)s1` (stereo not shown) [Compound 140, 1-[4-Fluoro-3-(pyrazin-2-yloxymethyl)-phenyl]-3-[5-(tetrahydro-furan-2-yl)-[1,3,4]thiadiazol-2-yl]-urea], less than 2 µM.

With `Clc1cccc(Cl)c1COc1cnc(NCc2ccccc2)cn1` [Compound 141, Benzyl-[5-(2,6-dichloro-benzyloxy)-pyrazin-2-yl]-amine], the concentration for half-maximal inhibition (IC50) is less than 20 µM. As for `CC(C)(C)c1cc(NC(=O)Oc2cccc(COc3cnccn3)c2)n(-c2ccccc2)n1` [Compound 142], the figure is less than 200 µM.

Take `CC(C)(C)c1ccc2[nH]cc(CC(=O)Nc3ccc(F)c(COc4cnccn4)c3)c2c1` [Compound 143]: the IC50 is less than 200 µM. Next, `Cc1nc2sccn2c1C(=O)Nc1ccc(F)c(COc2cnccn2)c1` [Compound 144, 6-Methyl-imidazo[2,1-b]thiazole-5-carboxylic acid [4-fluoro-3-(pyrazin-2-yloxymethyl)-phenyl]-amide]: less than 2 µM; `C=CS(=O)(=O)Nc1cnc(OCc2c(Cl)cccc2Cl)cn1` [Compound 145]: less than 200 µM; `CC(C)(C)c1cc(C(=O)Nc2ccc(F)c(COc3cnccn3)c2)cc(C(C)(C)C)c1` [Compound 146, 3,5-Di-tert-butyl-N-[4-fluoro-3-(pyrazin-2-yloxymethyl)-phenyl]-benzamide]: less than 2 µM. For the compound `O=C(Nc1ccc(F)c(COc2cnccn2)c1)c1ccc(=O)n(Cc2ccccc2)c1` [Compound 147, 1-Benzyl-6-oxo-1,6-dihydro-pyridine-3-carboxylic acid [4-fluoro-3-(pyrazin-2-yloxymethyl)-phenyl]-amide], the IC50 is less than 20 µM. Consider `CNc1cnc(OCc2c(Cl)cccc2Cl)cn1` [Compound 148, [5-(2,6-Dichloro-benzyloxy)-pyrazin-2-yl]-methyl-amine], for which the IC50 is less than 200 µM. Next, `CSc1nnc(NC(=O)Nc2ccc(F)c(COc3cnccn3)c2)s1` [Compound 149, 1-[4-Fluoro-3-(pyrazin-2-yloxymethyl)-phenyl]-3-(5-methylsulfanyl-[1,3,4]thiadiazol-2-yl)-urea]: less than 200 µM.
